Target: T1, Bcl-2-like protein 2 (Homo sapiens, UniProt Q92843)
T1 sequence (Q92843 whole entry): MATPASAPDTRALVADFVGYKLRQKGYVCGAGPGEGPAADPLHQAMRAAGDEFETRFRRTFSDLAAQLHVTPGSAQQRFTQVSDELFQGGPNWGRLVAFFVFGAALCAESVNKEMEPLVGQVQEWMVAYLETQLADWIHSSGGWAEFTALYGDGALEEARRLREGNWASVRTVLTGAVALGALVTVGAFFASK
Assay: modulators of Bim-Bcl-W protein interaction, dose response, biochemical, multiplexed, bead-based flow cytometry, fluorescence (AID 1330)
Details: not given

Row | EC50 [µM] | Structure (SMILES)
1 | 4.15 | O=c1[nH]c2ccc(N=Cc3c(O)ccc4cc(Br)ccc34)cc2[nH]1 [SMR000171789]
2 | 9.02 | C#CCn1cc(C=C2C(=O)c3ccccc3C2=O)c2ccccc21 [SMR000196125]
3 | 42.4 | CNCc1ccccc1Sc1ccc(O)c(O)c1 [SMR000230497]
4 | 5.05 | CN=c1scc(-c2cccs2)n1N=Cc1ccc(O)c(O)c1O [SMR000242177]
5 | 2.36 | Nc1c(C(=O)NCC2CCCO2)sc2nc3c(c(-c4ccco4)c12)CC/C3=C\c1ccco1 (centres undefined) [SMR000259502]
6 | 2.6 | Nc1c(C(=O)NC2CC2)sc2nc3c(c(-c4ccco4)c12)CC/C3=C/c1ccco1 [SMR000259554]
7 | 4.03 | CC(=NNC(=O)c1cc(O)c(O)c(O)c1)c1ccc([N+](=O)[O-])cc1 [SMR000312589]
8 | 7.89 | Cc1nnc2ccc(-c3cccc(NC(=O)c4ccco4)c3)nn12 [SMR000324305]
9 | 37.5 | CCN1/C(=C/C(C)=C/c2sc3ccccc3[n+]2CC)Sc2ccccc21 [SMR000354813]

The next lines start with the compound.

Row | Structure (SMILES) | EC50 [µM]
10 | OCCN1CCN(CCCc2c3c(cc4c2CCC4)CCC3)CC1 [MLS000698424] | 16.6
11 | COc1cccc2c(SCC(=O)NN=Cc3ccc(O)cc3O)cc(C)nc12 [N'-[(E)-(2-hydroxy-4-oxo-1-cyclohexa-2,5-dienylidene)methyl]-2-[(8-methoxy-2-methyl-4-quinolinyl)thio]acetohydrazide] | 55.2
12 | c1ccc(Nc2cccc(Nc3ccccc3)n2)cc1 [N,N'-diphenyl-2,6-pyridinediamine] | 2.58
13 | COc1cc(C=NNC(=O)CN(Cc2ccco2)S(=O)(=O)c2ccccc2)ccc1O [N-(2-furanylmethyl)-N-[2-[[(E)-(3-methoxy-4-oxo-1-cyclohexa-2,5-dienylidene)methyl]hydrazo]-2-oxoethyl]benzenesulfonamide] | 15.3
14 | COc1cccc(CN=Nc2nn3cnnc3c3ccccc23)c1 [N-[1-(3-Methoxy-phenyl)-meth-(E)-ylidene]-N'-[1,2,4]triazolo[3,4-a]phthalazin-6-yl-hydrazine] | 2.43
15 | CCC(=O)N(CC)C1C(=O)C(=O)c2ccccc2C1=O (centres undefined) [N-ethyl-N-(1-hydroxy-3,4-dioxo-2-naphthalenyl)propanamide] | 0.92
16 | O=C1c2ccccc2-c2onc3ccc(NCCCn4ccnc4)c1c23 [SMR000044769] | 1.11
17 | O=C(Nc1cccc(C(F)(F)F)c1)c1ccc2nc(-c3ccco3)c(-c3ccco3)nc2c1 [SMR000142217] | 9.02

Same assay, conditions: inactive by the depositor's call

Row | EC50 [µM] | Structure (SMILES)
18 | 15.7 | Nc1ccc(C2=Nc3cccc4cccc(c34)N2)cc1 [SMR000175908]
19 | 17.3 | CN(N=Cc1cccnc1)C1=NS(=O)(=O)c2ccccc21 [SMR000207578]
20 | 2.98 | Oc1ccc(NCc2ccccc2OCc2ccccc2)cc1 [SMR000231540]
21 | 18 | COc1ccc(OC)c(-n2c(=O)c3ccccc3c3ccccc3c2=O)c1 [SMR000236434]
22 | 10.9 | O=C1c2ccccc2-c2onc3ccc(N4CCCC4)c1c23 [SMR000279741]
23 | 25.7 | COc1cc(OC)c([N+](=O)[O-])cc1[CH+][N-]NC(=O)c1ccncc1 [SMR000306621]
24 | 11.1 | O=C(CSc1ccc2nnc(-c3ccncc3)n2n1)Nc1nccs1 [SMR000320332]
25 | 1.59 | O=C(Nc1cccc(Cl)c1)Nc1ccnc(-c2cccnc2)n1 [SMR000337179]
26 | 15.7 | Cc1ccnc(Nc2nc(-c3c(C)nc4sccn34)cs2)c1 [[4-(6-Methyl-imidazo[2,1-b]thiazol-5-yl)-thiazol-2-yl]-(4-methyl-pyridin-2-yl)-amine]
27 | 16.7 | CCOC(=O)c1nc(Nc2ccc(C(=O)OC)cc2)c2ccccc2n1 [ethyl 4-(4-methoxycarbonylanilino)quinazoline-2-carboxylate]
28 | 2.73 | CN(N=Cc1ccncc1)C1=NS(=O)(=O)c2ccccc21 [isonicotinaldehyde (1,1-dioxido-1,2-benzisothiazol-3-yl)(methyl)hydrazone]

Second part, the compound before the results:

Row | Structure (SMILES) | EC50 [µM]
29 | COc1cc2nc(=S)[nH]c(NCCc3ccc(S(N)(=O)=O)cc3)c2cc1OC [MLS000674601] | 0.67
30 | COc1ccc(C)cc1-n1c(=O)c2ccccc2c2ccccc2c1=O [MLS000682999] | 24.2
31 | Fc1ccc(C2=Nc3cccc4cccc(c34)N2)cc1 [MLS000687139] | 9.76
32 | COc1ccc(/C=C/C(=O)c2cc(Br)ccc(=O)c2O)cc1 [MLS000702099] | 27.5
33 | CCOC(=O)c1c(O)nc2ccc(Cl)c3c2c1-c1ccccc1C3=O [MLS000704595] | 6.14
34 | Cc1ccc(/C=C/C(=O)c2ccccc(=O)c2O)cc1C [MLS000756172] | 27.9
35 | CC(=O)c1ccc(NC(=O)c2ccc3nc(-c4ccco4)c(-c4ccco4)nc3c2)cc1 [N-(4-acetylphenyl)-2,3-di-2-furyl-6-quinoxalinecarboxamide] | 3.97
36 | COc1ccc(CCNC(=O)c2ccc3nc(-c4ccco4)c(-c4ccco4)nc3c2)cc1OC [N-[2-(3,4-dimethoxyphenyl)ethyl]-2,3-di-2-furylquinoxaline-6-carboxamide] | 12.2
37 | COc1ccccc1NC1=C(NC(C)=O)C(=O)c2ccccc2C1=O [N-[3-(2-methoxyanilino)-1,4-dioxonaphthalen-2-yl]acetamide] | 4
38 | CC(=O)NC1=C(NC2CCS(=O)(=O)C2)C(=O)c2ccccc2C1=O (centres undefined) [N-[3-[(1,1-dioxothiolan-3-yl)amino]-1,4-dioxonaphthalen-2-yl]acetamide] | 3.49
39 | Cc1cccc(C(=O)/N=c2\c(C#N)cc3c(=O)n4cccc(C)c4nc3n2Cc2ccco2)c1 [N-[3-cyano-1-(furan-2-ylmethyl)-10-methyl-5-oxodipyrido[3,4-c:1',2'-f]pyrimidin-2-ylidene]-3-methylbenzamide] | 41.3
40 | COc1cc(CNc2ccc(N3CCCC3)cc2)cc(Cl)c1OC [N-[(3-chloranyl-4,5-dimethoxy-phenyl)methyl]-4-pyrrolidin-1-yl-aniline] | 3.72
41 | Cc1ccc(C=NN(C)C2=NS(=O)(=O)c3ccccc32)o1 [N-methyl-N-[(5-methyl-2-furanyl)methylideneamino]-1,1-dioxo-1,2-benzothiazol-3-amine] | 16.6
42 | CC(C)(C)NC(=O)COc1ccc(CNc2ccc3[nH]c(O)nc3c2)cc1 [N-tert-butyl-2-[4-[[(2-oxidanylidene-1,3-dihydrobenzimidazol-5-yl)amino]methyl]phenoxy]ethanamide] | 6.29
43 | COCCCNc1nc(S)nc2cc(OC)c(OC)cc12 [SMR000026607] | 3.68
44 | CSc1nnc2c3cc(C)ccc3n(Cc3ccccc3)c2n1 [SMR000046397] | 29.6
45 | c1ccc(-c2nc(N3CCCCCC3)c3ccccc3n2)nc1 [SMR000046752] | 21.7
46 | Nc1c(C(=O)NCc2ccco2)sc2nc3c(cc12)C(=O)CCC3 [SMR000072940] | 31.8
47 | O=C(Nc1ccc2nc(-c3ccco3)c(-c3ccco3)nc2c1)NC1CC1 [SMR000118524] | 16.4
48 | O=C(NCCO)c1ccc2nc(-c3ccco3)c(-c3ccco3)nc2c1 [SMR000121771] | 11.2
49 | COC(=O)c1c(C(=O)OC)c2cccc3cc(-c4ccccc4)c4ccc1c4n32 [SMR000161417] | 1.31

— BindingDB's records for doi:10.7270/Q2BR8QM3 (Nmmlsc, 2008)
